# Reference: PubChem BioAssay (NCI)
#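 Briefly, cells in 96-well plates were exposed to five compound concentrations for 48 h, and endpoints were estimated by linear interpolation. At the TGI there is no net growth.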
# Columns and labels:
# Experiment in all cases: DTP human tumour cell line panel, 48 h
# HOP-62 NSCLC = test system: HOP-62 NSCLC
# UACC-62 melanoma = test system: UACC-62 melanoma
# SK-OV-3 ovarian = test system: SK-OV-3 ovarian
# HL-60(TB) leukemia = test system: HL-60(TB) leukemia
# M14 melanoma = test system: M14 melanoma
# T-47D breast = test system: T-47D breast
# SF-268 CNS = test system: SF-268 CNS
# CCRF-CEM leukemia = test system: CCRF-CEM leukemia
# BT-549 breast = test system: BT-549 breast
# A498 renal = test system: A498 renal
# OVCAR-8 ovarian = test system: OVCAR-8 ovarian
# ACHN renal = test system: ACHN renal
# MOLT-4 leukemia = test system: MOLT-4 leukemia
# HOP-92 NSCLC = test system: HOP-92 NSCLC
# UACC-257 melanoma = test system: UACC-257 melanoma
# HCC-2998 colon = test system: HCC-2998 colon
# A549 NSCLC = test system: A549 NSCLC
# SK-MEL-5 melanoma = test system: SK-MEL-5 melanoma
# EKVX NSCLC = test system: EKVX NSCLC
# 786-0 renal = test system: 786-0 renal
Structure (SMILES),TGI (HOP-62 NSCLC),TGI (UACC-62 melanoma),TGI (SK-OV-3 ovarian),TGI (HL-60(TB) leukemia),TGI (M14 melanoma),TGI (T-47D breast),TGI (SF-268 CNS),TGI (CCRF-CEM leukemia),TGI (BT-549 breast),TGI (A498 renal),TGI (OVCAR-8 ovarian),TGI (ACHN renal),TGI (MOLT-4 leukemia),TGI (HOP-92 NSCLC),TGI (UACC-257 melanoma),TGI (HCC-2998 colon),TGI (A549 NSCLC),TGI (SK-MEL-5 melanoma),TGI (EKVX NSCLC),TGI (786-0 renal)
CC#CC(O)(C(=O)OCCCN(C)C)C1CCCCC1 (stereo not given),> 100 µM,> 100 µM,> 100 µM,> 100 µM,> 100 µM,> 100 µM,> 100 µM,> 100 µM,> 100 µM,> 100 µM,> 100 µM,> 100 µM,> 100 µM,> 100 µM,> 100 µM,> 100 µM,> 100 µM,> 100 µM,> 100 µM,> 100 µM
c1ccc2c(Cc3[nH]c4ccccc4c3Cc3c[nH]c4ccccc34)c[nH]c2c1,12.7 µM,> 32.4 µM,15.4 µM,4.58 µM,6.71 µM,12.8 µM,4.86 µM,8.98 µM,19.5 µM,5.73 µM,35.6 µM,> 36 µM,12 µM,18.1 µM,8.47 µM,3.26 µM,21.6 µM,6.05 µM,11.4 µM,4.25 µM
COC(=O)/C=C1\C(=O)N(C(C)=O)c2ccc(Br)cc21,25.9 µM,25.3 µM,29.1 µM,5.66 µM,23 µM,15.1 µM,21.1 µM,4.84 µM,22.8 µM,51.6 µM,24 µM,23.9 µM,10 µM,29.5 µM,22.8 µM,31.9 µM,36 µM,23 µM,32.1 µM,18 µM
CC(NC(=O)/C(=C/c1ccccc1)NC(=O)c1ccccc1)C(=O)O (stereo not given),> 100 µM,> 100 µM,> 100 µM,> 100 µM,> 100 µM,> 100 µM,> 100 µM,> 100 µM,> 100 µM,> 100 µM,> 100 µM,> 100 µM,> 100 µM,> 100 µM,> 100 µM,> 100 µM,> 100 µM,> 100 µM,> 100 µM,> 100 µM
O=C1NC(=O)C(F)(n2cc(F)c(=O)[nH]c2=O)C(O)N1 (stereo not given),> 10 µM,> 10 µM,> 10 µM,> 10 µM,> 10 µM,> 10 µM,> 10 µM,> 10 µM,> 10 µM,> 10 µM,> 10 µM,> 10 µM,> 10 µM,> 10 µM,> 10 µM,> 10 µM,> 10 µM,> 10 µM,> 10 µM,> 10 µM
O=C1CSC(/C=C/c2ccccc2)N1c1nc2cc3sc(N4C(=O)CSC4/C=C/c4ccccc4)nc3cc2s1 (stereo not given),> 100 µM,> 100 µM,> 100 µM,> 100 µM,> 100 µM,> 100 µM,> 100 µM,> 63.5 µM,> 100 µM,> 100 µM,> 100 µM,> 100 µM,> 100 µM,> 100 µM,> 100 µM,> 100 µM,> 100 µM,> 100 µM,> 80.9 µM,> 100 µM
CC(C)OC(=O)c1ccc(CCC2=CC(=O)C=CC2=O)cc1,47.4 µM,28.8 µM,> 88.6 µM,7.56 µM,39 µM,4.45 µM,28.6 µM,10.9 µM,19.7 µM,45.3 µM,18.1 µM,18.8 µM,8.05 µM,13.9 µM,25.6 µM,32.6 µM,> 79.7 µM,30 µM,23.8 µM,15.6 µM
